# Measured values: patent US9963464B2, “Macrocyclic compounds” (Bayer Pharma Aktiengesellschaft, priority 2014, dated 2018)
# Like-named read-outs stand apart in the source and are kept apart here.
# Tests used:
# [1] = target: T1, CDK9/CycT1 (Homo sapiens, UniProt P50750); assay: CDK9/CycT1 kinase assay (TR-FRET, Method 1a); assay type: biochemical; conditions: for IC50: Method 1a, 10 μM ATP; for Selectivity CDK9 over CDK2: IC50 (CDK2)/IC50 (CDK9): Methods 1a and 2a, minimal values where CDK9 IC50 is at the assay limit
# T1 construct: Recombinant full-length His-tagged human CDK9 and CycT1; His; purchased Invitrogen PV4131; host or cells: insect cells
# T1 sequence (P50750 whole entry): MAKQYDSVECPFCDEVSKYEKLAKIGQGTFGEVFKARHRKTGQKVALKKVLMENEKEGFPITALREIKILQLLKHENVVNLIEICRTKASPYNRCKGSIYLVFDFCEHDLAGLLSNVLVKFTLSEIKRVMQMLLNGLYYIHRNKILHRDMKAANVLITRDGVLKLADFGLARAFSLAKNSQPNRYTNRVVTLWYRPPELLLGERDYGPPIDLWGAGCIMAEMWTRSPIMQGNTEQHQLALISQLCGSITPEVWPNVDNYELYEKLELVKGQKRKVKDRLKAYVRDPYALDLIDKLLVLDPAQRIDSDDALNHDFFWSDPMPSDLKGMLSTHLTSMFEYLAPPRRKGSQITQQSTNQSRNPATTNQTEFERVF
# T1 sequence (O60563 whole entry partner): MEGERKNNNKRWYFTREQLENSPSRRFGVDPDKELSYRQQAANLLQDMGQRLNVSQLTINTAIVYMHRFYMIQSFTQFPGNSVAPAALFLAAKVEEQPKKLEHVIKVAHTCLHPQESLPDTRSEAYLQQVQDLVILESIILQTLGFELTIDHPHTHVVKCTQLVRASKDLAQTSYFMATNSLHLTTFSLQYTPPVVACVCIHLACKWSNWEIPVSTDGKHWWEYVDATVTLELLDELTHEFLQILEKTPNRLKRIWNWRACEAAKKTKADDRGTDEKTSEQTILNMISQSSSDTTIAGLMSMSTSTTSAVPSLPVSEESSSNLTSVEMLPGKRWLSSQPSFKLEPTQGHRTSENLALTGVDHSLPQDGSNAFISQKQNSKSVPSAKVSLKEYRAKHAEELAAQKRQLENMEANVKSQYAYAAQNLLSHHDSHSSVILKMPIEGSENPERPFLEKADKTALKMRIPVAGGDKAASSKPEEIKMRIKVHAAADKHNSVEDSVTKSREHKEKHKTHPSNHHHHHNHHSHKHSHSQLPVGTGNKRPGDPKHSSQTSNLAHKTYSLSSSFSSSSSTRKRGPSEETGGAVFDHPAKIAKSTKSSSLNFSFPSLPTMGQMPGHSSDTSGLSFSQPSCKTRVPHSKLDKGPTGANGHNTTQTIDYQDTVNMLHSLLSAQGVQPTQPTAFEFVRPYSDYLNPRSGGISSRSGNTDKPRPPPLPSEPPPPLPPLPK
# From the text: 1a. CDK9/CycT1 Kinase Assay:
# CDK9/CycT1-inhibitory activity of compounds of the present invention was quantified employing the CDK9/CycT1 TR-FRET assay as described in the following paragraphs:
# Recombinant full-length His-tagged human CDK9 and CycT1, expressed in insect cells and purified by Ni-NTA affinity chromatography, were purchased from Invitrogen (Cat. No PV4131). As substrate for the kinase reaction biotinylated peptide biotin-Ttds-YISPLKSPYKISEG (C-terminus in amid form) was used which can be purchased e.g. from the company JERINI Peptide Technologies (Berlin, Germany). For the assay 50 nl of a 100 fold concentrated solution of the test compound in DMSO was pipetted into a black low volume 384 well microtiter plate (Greiner Bio-One, Frickenhausen, Germany), 2 μl of a solution of CDK9/CycT1 in aqueous assay buffer [50 mM Tris/HCl pH 8.0, 10 mM MgCl2, 1.0 mM dithiothreitol, 0.1 mM sodium ortho-vanadate, 0.01% (v/v) Nonidet-P40 (Sigma)] were added and the mixture was incubated for 15 min at 22° C. to allow pre-binding of the test compounds to the enzyme before the start of the kinase reaction. […] The concentration of CDK9/CycT1 was adjusted depending of the activity of the enzyme lot and was chosen appropriate to have the assay in the linear range, typical concentrations were in the range of 1 μg/mL. The reaction was stopped by the addition of 5 μl of a solution of TR-FRET detection reagents (0.2 μM streptavidine-XL665 [Cisbio Bioassays, Codolet, France] and 1 nM anti-RB(pSer807/pSer811)-antibody from BD Pharmingen [#558389] and 1.2 nM LANCE EU-W1024 labeled anti-mouse IgG antibody [Perkin-Elmer, product no. AD0077]) in an aqueous EDTA-solution (100 mM EDTA, 0.2% (w/v) bovine serum albumin in 100 mM HEPES pH 7.5).
# The resulting mixture was incubated 1 h at 22° C. to allow the formation of complex between the phosphorylated biotinylated peptide and the detection reagents. Subsequently the amount of phosphorylated substrate was evaluated by measurement of the resonance energy transfer from the Eu-chelate to the streptavidine-XL. Therefore, the fluorescence emissions at 620 nm and 665 nm after excitation at 350 nm was measured in a HTRF reader, e.g. a Rubystar (BMG Labtechnologies, Offenburg, Germany) or a Viewlux (Perkin-Elmer). The ratio of the emissions at 665 nm and at […] was taken as the measure for the amount of phosphorylated substrate. The data were normalised (enzyme reaction without inhibitor=0% inhibition, all other assay components but no enzyme=100% inhibition).
# [2] = test system: HeLa cells; assay: Proliferation assay HeLa; assay type: cell-based, human; conditions: 4 days, crystal violet, read-out: Inhibition of HeLa cell proliferation IC50
# Description: (§1) Cultivated tumour cells (HeLa, human cervical tumour cells, ATCC CCL-2; NCI-H460, human non-small cell lung carcinoma cells, ATCC HTB-177; A2780, human ovarian carcinoma cells, ECACC #93112519; DU 145, hormone-independent human prostate carcinoma cells, ATCC HTB-81; HeLa-MaTu-ADR, multidrug-resistant human cervical carcinoma cells, EPO-GmbH Berlin; Caco-2, human colorectal carcinoma cells, ATCC HTB-37; B16F10, mouse melanoma cells, ATCC CRL-6475) were plated at a density of 5,000 cells/well (DU145, HeLa-MaTu-ADR), 3,000 cells/well (NCI-H460, HeLa), 2,500 cells/well (A2780), 1,500 cells/well (Caco-2), or 1,000 cells/well (B16F10) in a 96-well multititer plate in 200 μL of their respective growth medium supplemented 10% fetal calf serum. After 24 hours, the cells of one plate (zero-point plate) were stained with crystal violet (see below), while the medium of the other plates was replaced by fresh culture medium (200 μl), to which the test substances were added in various concentrations (0 μM, as well as in the range of 0.001-10 μM). The cells were incubated for 4 days in the presence of test substances. Cell proliferation was determined by staining the cells with crystal violet: the cells were fixed by adding 20 μl/measuring point of an 11% glutaric aldehyde solution for 15 minutes at room temperature. After three washing cycles of the fixed cells with water, the plates were dried at room temperature. The cells were stained by adding 100 μl/measuring point of a 0.1% crystal violet solution (pH 3.0). After three washing cycles of the stained cells with water, the plates were dried at room temperature. The dye was dissolved by adding 100 μl/measuring point of a 10% acetic acid solution. The extinction was determined by photometry at a wavelength of 595 nm. The change of cell number, in percent, was calculated by normalization of the measured values to the extinction values of the zero-point plate (=0%) and the extinction of the untreated (0 μm) cells (=100%). The IC50 values (inhibitory concentration at 50% of maximal effect) were determined by means of a 4 parameter fit. Non-adherent MOLM-13 human acute myeloid leukemia cells (DSMZ ACC 554) were seeded at a density of 5,000 cells/well in a 96-well multititer plate in 100 μL of growth medium supplemented 10% fetal calf serum. After 24 hours, cell viability of one plate (zero-point plate) was determined with the Cell Titre-Glo Luminescent Cell Viability Assay (Promega), while 50 μL of test compound containing medium was added to the wells of the other plates (final concentrations in the range of 0.001-1 μM and DMSO controls). Cell viability was assessed after 72-hour exposure with the Cell Titre-Glo Luminescent Cell Viability Assay (Promega). IC50 values (inhibitory concentration at 50% of maximal effect) were determined by means of a 4 parameter fit on measurement data which were normalized to vehicle (DMSO) treated cells (=100%) and measurement readings taken immediately before compound exposure (=0%).
# [3] = test system: HeLa-MaTu-ADR cells; assay: Proliferation assay HeLa-MaTu-ADR; assay type: cell-based, human; conditions: 4 days, crystal violet, read-out: Inhibition of HeLa-MaTu-ADR cell proliferation IC50
# Description: as §1
# [4] = test system: Caco-2 cells; assay: Proliferation assay Caco-2; assay type: cell-based, human; conditions: 4 days, crystal violet, read-out: Inhibition of Caco-2 cell proliferation IC50
# Description: as §1
SMILES,IC50 [1],Selectivity CDK9 over CDK2: IC50 (CDK2)/IC50 (CDK9) [1],"IC50 ([2]; Homo sapiens, HeLa, 96 h)","IC50 ([3]; Homo sapiens, 96 h)","IC50 ([4]; Homo sapiens, Caco-2, 96 h)",IC50 ([2]; trifluoroacetate),IC50 ([3]; trifluoroacetate),IC50 ([4]; trifluoroacetate)
"CN=S(C)(=O)Cc1cc2nc(c1)OCCCOc1cc(F)ccc1-c1cc(ncc1F)N2 (racemic) [Example 19, (rac)-8-[(N,S-dimethylsulfonimidoyl)methyl]-15,19-difluoro-3,4-dihydro-2H,11H-10,6-(azeno)-12,16-(metheno)-1,5,11,13-benzodioxadiazacyclooctadecine]",5.3 nM,2.9,31 nM,38 nM,33 nM,–,–,–
"CCOC(=O)N=S(C)(=O)Cc1cc2nc(c1)OCCCOc1cc(F)ccc1-c1cc(ncc1F)N2 (racemic) [Example 20, (rac)-ethyl [{[15,19-difluoro-3,4-dihydro-2H,11H-10,6-(azeno)-12,16-(metheno)-1,5,11,13-benzodioxadiazacyclooctadecin-8-yl]methyl}(methyl)oxido-λ^6-sulfanylidene]carbamate]",5.3 nM,2.2,26 nM,30 nM,24 nM,–,–,–
"CS(=O)(Cc1cc2nc(c1)OCCCOc1cc(F)ccc1-c1cc(ncc1F)N2)=NC(=O)OCCCl (racemic) [Example 21, (rac)-2-chloroethyl [{[15,19-difluoro-3,4-dihydro-2H,11H-10,6-(azeno)-12,16-(metheno)-1,5,11,13-benzodioxadiazacyclooctadecin-8-yl]methyl}(methyl)oxido-λ^6-sulfanylidene]carbamate]",7.3 nM,1.6,11 nM,15 nM,16 nM,–,–,–
"CS(=O)(=O)N=S(C)(=O)Cc1cc2nc(c1)OCCCOc1cc(F)ccc1-c1cc(ncc1F)N2 (racemic) [Example 22, (rac)-N-[{[15,19-difluoro-3,4-dihydro-2H,11H-10,6-(azeno)-12,16-(metheno)-1,5,11,13-benzodioxadiazacyclooctadecin-8-yl]methyl}(methyl)oxido-λ^6-sulfanylidene]methanesulfonamide]",5.3 nM,3.7,17 nM,20 nM,27 nM,–,–,–
"CS(=O)(Cc1cc2nc(c1)OCCCOc1cc(F)ccc1-c1cc(ncc1F)N2)=NS(=O)(=O)CCN (racemic) [Example 23, (rac)-2-amino-N-[{[15,19-difluoro-3,4-dihydro-2H,11H-10,6-(azeno)-12,16-(metheno)-1,5,11,13-benzodioxadiazacyclooctadecin-8-yl]methyl}(methyl)oxido-λ^6-sulfanylidene]ethanesulfonamide]",8.7 nM,3.5,57 nM,396 nM,422 nM,–,–,–
"CS(=O)(Cc1cc2nc(c1)OCCCOc1cc(F)ccc1-c1cc(ncc1F)N2)=NS(=O)(=O)CCN.O=C(O)C(F)(F)F (racemic) [Example 24, (rac)-2-{[{[15,19-difluoro-3,4-dihydro-2H,11H-10,6-(azeno)-12,16-(metheno)-1,5,11,13-benzodioxadiazacyclooctadecin-8-yl]methyl}(methyl)oxido-λ^6-sulfanylidene]sulfamoyl}ethanaminium trifluoroacetate]",2.2 nM,6.2,–,–,–,82 nM,210 nM,267 nM
"CS(=O)(Cc1cc2nc(c1)OCCCOc1cc(F)ccc1-c1cc(ncc1F)N2)=NC(=O)OCCN (racemic) [Example 25, (rac)-2-aminoethyl [{[15,19-difluoro-3,4-dihydro-2H,11H-10,6-(azeno)-12,16-(metheno)-1,5,11,13-benzodioxadiazacyclooctadecin-8-yl]methyl}(methyl)oxido-λ^6-sulfanylidene]carbamate]",4.3 nM,1.3,14 nM,32 nM,47 nM,–,–,–
